# Results published in patent US20020019389A1, “Urea derivative useful as an anti-cancer agent and process for preparing same” (priority 2000, published 2002).
# Read-outs that look alike come from different tables or passages of the source.
# What was measured:
# SPF ICR mouse [1] = settings: clinically used comparison drugs, not among the test compounds of b552; species and route not given; cited from earlier work
# SPF ICR mouse [2] = assay: Acute toxicity test, single oral administration; assay type: in vivo; settings: single administration per oral, 7-day observation
# Description: (§1) (1) Test Animal: SPF ICR mouse
# (§2) (2) Age of the Test Animal: 4 weeks from acquisition 5 weeks from the start of administration
# (§3) (3) Gender and Number of Test Animal: respective 18 he and she-mice (6 groups in each of he and she-mice, 3 mice per group)
# (§4) (4) Breeding Environment: Temperature 22±3° C., Relative humidity […], Illumination 150-300 Lux
# (§5) (5) Method of Administration: Single administration per oral
# (§6) (6) Items to be Observed: General symptoms, appearance, weight and autopsy of dead mice
# (§7) (8) Medium: 0.5% Tween 80
# [3] = tested on: A549 (lung cancer) cell line; assay: Anti-cancer activity in vitro, A549 cell line; assay type: cell-based
# Description: (§8) The anti-cancer activity and toxicity of the compound according to the present invention were evaluated in vitro using A549 (lung cancer), SUN638 (gastric cancer), HCT116 (rectal cancer), and A431 (ovarian cancer) cell lines. The above four (4) cell lines were purchased from Cancer Research Institute, Seoul National University College of Medicine. […] The experiment was basically carried out according to the process described in Monks, A., et al, Journal of National Cancer Institute. 83: 757-766 (1991) and the results are represented in the following Tables 2 and 3.
# [4] = tested on: SUN638 (gastric cancer) cell line; assay: Anti-cancer activity in vitro, SUN638 cell line; assay type: cell-based
# Description: as §8
# [5] = tested on: A431 (ovarian cancer) cell line; assay: Anti-cancer activity in vitro, A431 cell line; assay type: cell-based
# Description: as §8
# A431 cell line = assay: Anti-cancer activity in vitro, A431 cell line; assay type: cell-based; settings: Homo sapiens, A-431, read-out: LC50
# Description: as §8
# [6] = tested on: HCT116 (rectal cancer) cell line; assay: Anti-cancer activity in vitro, HCT116 cell line; assay type: cell-based
# Description: as §8
# [7] = Acute toxicity test, single oral administration; assay type: in vivo; settings: mouse, in vivo, single administration per oral, 7-day observation
# Description: as §1, §2, §3, §4, §5, §6, §7
# [8] = Homo sapiens, A549, read-out: LC50
# [9] = Homo sapiens, A549 Cell Line, read-out: GI50
# [10] = SUN638 Cell Line, read-out: GI50
# [11] = Homo sapiens, A-431, A431 Cell Line, read-out: GI50
# [12] = Homo sapiens, HCT-116, read-out: LC50
# [13] = Homo sapiens, HCT-116, HCT116 Cell Line, read-out: GI50
# [14] = both sexes, male and female ICR mice
smiles,measurement,setting,value
N.N.O=C([O-])C1(C(=O)[O-])CCC1.[Pt+2] [Carboplatin],LD50,SPF ICR mouse [1],150 mg/kg
"COc1cc2c(cc1OC)C(c1ccccc1)CN(C(=O)Nc1nc3ccccc3nc1OC)CC2 (stereo not shown) [Compound 2, 3-[N-(2-methoxyquinoxalin-3-yl)aminocarbonyl]-7,8-dimethoxy-1-phenyl-2,3,4,5-tetrahydro-3H-benzazepine]",LD50,SPF ICR mouse [2]; male and female ICR mice,2000 (male and female) mg/kg
"C=CCNc1nc(NCC=C)nc(N2CCN(C(=O)NC(c3ccccc3)c3ccccc3)CC2)n1 [Compound 38, 1-[(diphenylmethyl)aminocarbonyl]-4-(4,6-bis-allylamino-[1,3,5]triazin-2-yl)piperazine]",LC50,[3]; [8],> 100 µg/mL
same,GI50,[3]; [9],1.28 µg/mL
same,GI50,[4]; [10],2.75 µg/mL
same,LC50,[4]; read-out: LC50,> 100 µg/mL
same,TGI50,[5]; A431 Cell Line,7.24 µg/mL
same,GI50,[5]; [11],1.41 µg/mL
same,LC50,A431 cell line,> 100 µg/mL
same,LC50,[6]; [12],> 100 µg/mL
same,GI50,[6]; [13],1.28 µg/mL
same,LD50 at 7 day,[7]; [14],2000 mg/kg
"COc1nc2ccccc2nc1NC(=O)N1CCN(C(c2ccccc2)c2ccccc2)CC1 [Compound 48, 1-[N-(2-methoxyquinoxalin-3-yl)aminocarbonyl]-4-(diphenylmethyl)piperazine]",LC50,[3]; [8],> 100 µg/mL
same,GI50,[3]; [9],1.07 µg/mL
same,GI50,[4]; [10],1.62 µg/mL
same,LC50,[4]; read-out: LC50,> 100 µg/mL
same,TGI50,[5]; A431 Cell Line,100 µg/mL
same,GI50,[5]; [11],1.65 µg/mL
same,LC50,A431 cell line,> 100 µg/mL
same,LC50,[6]; [12],> 100 µg/mL
same,GI50,[6]; [13],0.67 µg/mL
"Cc1cc(C)cc(N2CCN(C(=O)n3ccnc3)CC2)c1 [Compound 55, 1-[(1H-imidazol-1-yl)carbonyl]-4-(3,5-dimethylphenyl)piperazine]",GI50,"[3]; Homo sapiens, A549",1.77 µg/mL
same,LC50,[3]; [8],> 100 µg/mL
same,GI50,[4],1.09 µg/mL
same,LC50,[4]; read-out: LC50,> 100 µg/mL
same,TGI50,[5]; A431 Cell Line,67.60 µg/mL
same,GI50,"[5]; Homo sapiens, A-431",1.38 µg/mL
same,LC50,A431 cell line,> 100 µg/mL
same,GI50,"[6]; Homo sapiens, HCT-116",2.08 µg/mL
same,LC50,[6]; [12],> 100 µg/mL
"Cc1cc(C)cc(N2CCN(C(=S)n3ccnc3)CC2)c1 [Compound 56, 1-[(1H-imidazol-1-yl)thiocarbonyl]-4-(3,5-dimethylphenyl) piperazine]",LC50,[3]; [8],> 100 µg/mL
same,GI50,[3]; [9],2.04 µg/mL
same,GI50,[4]; [10],1.34 µg/mL
same,LC50,[4]; read-out: LC50,> 100 µg/mL
same,TGI50,[5]; A431 Cell Line,28.84 µg/mL
same,GI50,[5]; [11],1.31 µg/mL
same,LC50,A431 cell line,> 100 µg/mL
same,LC50,[6]; [12],> 100 µg/mL
same,GI50,[6]; [13],1.47 µg/mL
"Cc1cc(C)cc(N2CCN(C(=O)n3ccnc3)CC2)c1.Cl [Compound 57, 1-[(1H-imidazol-1-yl)carbonyl]-4-(3,5-dimethylphenyl)piperazine hydrochloride]",GI50,"[3]; Homo sapiens, A549",1.77 µg/mL
same,LC50,[3]; [8],> 100 µg/mL
same,GI50,[4],1.69 µg/mL
same,LC50,[4]; read-out: LC50,> 100 µg/mL
same,TGI50,[5]; A431 Cell Line,8.31 µg/mL
same,GI50,"[5]; Homo sapiens, A-431",1.51 µg/mL
same,LC50,A431 cell line,> 100 µg/mL
same,GI50,"[6]; Homo sapiens, HCT-116",1.34 µg/mL
same,LC50,[6]; [12],> 100 µg/mL
same,LD50 at 7 day,[7]; [14],1160 mg/kg
"C=CCN(CC=C)c1nc(N(CC=C)CC=C)nc(N2CCN(C(=O)n3ccnc3)CC2)n1 [Compound 61, 1-[(1H-imidazol-1-yl)carbonyl]-4-(4,6-bis-diallylamino-[1,3,5]triazin-2-yl)piperazine]",GI50,"[3]; Homo sapiens, A549",6.02 µg/mL
same,LC50,[3]; [8],> 100 µg/mL
same,GI50,[4],2.95 µg/mL
same,LC50,[4]; read-out: LC50,> 100 µg/mL
same,LD50 at 7 day,[7]; female ICR mice,1140 mg/kg
same,LD50 at 7 day,[7]; male ICR mice,2330 mg/kg
"O=C(N1CCN(c2nc(NCC3CC3)nc(NCC3CC3)n2)CC1)n1ccnc1 [Compound 62, 1-[(1H-imidazol-1-yl)carbonyl]-4-(4,6-bis-cyclopropylmethylamino-[1,3,5]triazin-2-yl)piperazine]",GI50,"[3]; Homo sapiens, A549",0.48 µg/mL
same,LC50,[3]; [8],> 100 µg/mL
same,GI50,[4],0.61 µg/mL
same,LC50,[4]; read-out: LC50,> 100 µg/mL
same,GI50,"[6]; Homo sapiens, HCT-116",0.38 µg/mL
same,LC50,[6]; [12],> 100 µg/mL
same,LD50 at 7 day,[7]; female ICR mice,466 mg/kg
same,LD50 at 7 day,[7]; male ICR mice,354 mg/kg
"COc1cc2c(cc1OC)C(c1ccccc1)CN(C(=O)n1ccnc1)CC2 (stereo not shown) [Compound 66, 3-[(1H-imidazol-1-yl)carbonyl]-7,8-dimethoxy-1-phenyl-2,3,4,5-tetrahydro-3H-benzazepine]",GI50,[3]; A549 Cell Line,0.38 µg/mL
same,LC50,[3]; A549 Cell Line,>100 µg/mL
same,TGI50,[3]; A549 Cell Line,54.95 µg/mL
same,GI50,[4]; SUN638 Cell Line,0.21 µg/mL
same,LC50,[4]; SUN638 Cell Line,>100 µg/mL
same,TGI50,[4]; SUN638 Cell Line,1.73 µg/mL
same,GI50,[5]; A431 Cell Line,0.28 µg/mL
same,LC50,[5]; A431 Cell Line,>100 µg/mL
same,TGI50,[5]; A431 Cell Line,100 µg/mL
same,GI50,[6]; HCT116 Cell Line,0.19 µg/mL
same,LC50,[6]; HCT116 Cell Line,>100 µg/mL
same,TGI50,[6]; HCT116 Cell Line,7.76 µg/mL
same,LD50,SPF ICR mouse [2]; female ICR mice,2000 (female) mg/kg
same,LD50,SPF ICR mouse [2]; male ICR mice,1921 (male) mg/kg
"COc1cc2c(cc1OC)C(c1ccccc1)CN(C(=S)n1ccnc1)CC2 (stereo not shown) [Compound 67, 3-[(1H-imidazol-1-yl)thiocarbonyl]-7,8-dimethoxy-1-phenyl-2,3,4,5-tetrahydro-3H-benzazepine]",GI50,[3]; A549 Cell Line,0.66 µg/mL
same,LC50,[3]; A549 Cell Line,>100 µg/mL
same,TGI50,[3]; A549 Cell Line,17.78 µg/mL
same,GI50,[4]; SUN638 Cell Line,1.51 µg/mL
same,LC50,[4]; SUN638 Cell Line,>100 µg/mL
same,TGI50,[4]; SUN638 Cell Line,8.12 µg/mL
same,GI50,[5]; A431 Cell Line,0.70 µg/mL
same,LC50,[5]; A431 Cell Line,>100 µg/mL
same,TGI50,[5]; A431 Cell Line,30.19 µg/mL
same,GI50,[6]; HCT116 Cell Line,0.23 µg/mL
same,LC50,[6]; HCT116 Cell Line,>100 µg/mL
same,TGI50,[6]; HCT116 Cell Line,13.48 µg/mL
"COc1cc2c(cc1OC)C(c1ccc(F)cc1)CN(C(=O)n1ccnc1)CC2 (stereo not shown) [Compound 70, 3-[(1H-imidazol-1-yl)carbonyl]-7,8-dimethoxy-1-(4-fluoro)phenyl-2,3,4,5-tetrahydro-3H-benzazepine]",GI50,[3]; A549 Cell Line,1.12 µg/mL
same,LC50,[3]; A549 Cell Line,>100 µg/mL
same,TGI50,[3]; A549 Cell Line,100 µg/mL
same,GI50,[4]; SUN638 Cell Line,1.78 µg/mL
same,LC50,[4]; SUN638 Cell Line,>100 µg/mL
same,TGI50,[4]; SUN638 Cell Line,7.24 µg/mL
same,GI50,[6]; HCT116 Cell Line,1.31 µg/mL
same,LC50,[6]; HCT116 Cell Line,>100 µg/mL
same,TGI50,[6]; HCT116 Cell Line,23.98 µg/mL
same,LD50,SPF ICR mouse [2]; male and female ICR mice,2000 (male and female) mg/kg
COc1cccc2c1C(=O)c1c(O)c3c(c(O)c1C2=O)C[C@@](O)(C(=O)CO)C[C@@H]3O[C@H]1C[C@H](N)[C@H](O)[C@H](C)O1 [Doxorubicin],LD50,SPF ICR mouse [1],21.1 mg/kg
